Results as given in patent US7166611B2, “Pharmaceutical compositions having appetite suppressant activity” (priority 1997, dated 2007).

Assays:
[1] = test system: rats; experiment: Bioassay of chromatographic fractions for appetite suppressant activity; format: in vivo, rat; settings: bioassay of fractions from silica gel chromatography
Text: The extract may be prepared from plant material such as the stems and roots of said plants of the genus Trichocaulon or of the genus Hoodia. The genus Trichocaulon and the genus Hoodia include succulent plants growing in arid regions such as are found in Southern Africa. In one application of the invention, the active appetite suppressant extract is obtained from the species Trichocaulon piliferum. The species Trichocaulon officinale may also be used to provide an active appetite suppressant extract. In another application of the invention, the active appetite suppressant extract may be obtained from the species Hoodia currorii, Hoodia gordonii or Hoodia lugardii.
The partially purified active extract may be dissolved in methanol, and may be further fractionated by column chromatography, employing silica gel as an adsorption medium and a chloroform/30% methanol mixture as an eluent. A plurality of different fractions may be obtained, and each may be evaluated, by suitable bioassaying procedures, to determine the appetite suppressant activity thereof.
A fraction having appetite suppressant activity may preferably be further fractionated such as by column chromatography using silica gel as an adsorption medium and a 9:1 chloroform:methanol solvent, and the resultant sub-fractions bioassayed for their appetite suppressant activity. […]

[2] = test system: young female rats; experiment: Oral Dose Anorectic Test, three consecutive days; format: in vivo, rat
Procedure: Animals were allocated to treatment groups using randomisation tables. Each treatment group consisted of three animals, with 6 animals in the control group. The test sample was dosed to young female rats with body weight 100–150 g at acclimatisation, for three consecutive days. Animals were identified by means of metallic ear tags and KMnO4 skin markings for easy identification. Animals were housed individually in standard rodent polycarbonate cages, and water and powdered commercial rodent pellets were available ad libitum. Water and food intakes were measured and calculated for each day. In order to find the minimum effective dose of the test sample, five doses were tested. Treatment was by oral gavage, with the test sample suspended in potato starch.
The test substance was compound (1), a white granular powder prepared from an extract from plant material in accordance with the invention, and the measured quantity of the test sample was mixed with prepared potato starch and dosed. Mixing with potato starch took place immediately before dosing on each day. Before withdrawal of the dosing volume for each animal, the suspensions were mixed thoroughly using a Vortex.
A range of five doses was tested, with a control group 15 receiving only the carrier substance.

## C/C=C(\C)C(=O)O[C@@H]1CC2C(CC=C3C[C@@H](OC4CC(OC)C(OC5CC(OC)C(OC6OC(C)C(O)C(OC)C6O)C(C)O5)C(C)O4)CC[C@@]32C)[C@@]2(O)CC[C@H](C(C)=O)[C@@]12C (stereo partly drawn) [Compound (1), 3-0-[-β-D-thevetopyranosyl-(1→4)-β-D-cymaropyranosyl-(1→4)-β-D-cymaropyranosyl]-12β-0-tigloyloxy-14-hydroxy-14β-pregn-5-en-20-one]
[1]
  appetite suppressant activity: found to have appetite suppressing activity
[2]; 12.50 mg/kg group, oral
  body mass: Actual loss in body mass
[2]; 6.25–50.00 mg/kg oral gavage, three consecutive days
  health of the animals: Treatment did not affect the health of the animals
[2]; all dose groups 6.25–50.00 mg/kg oral
  liver at post-mortem examination: friable livers
[2]; all dose groups 6.25–50.00 mg/kg oral, three consecutive days
  mean body mass gain over the total study period: significantly reduced mean body mass gain
[2]; any dose group 6.25–50.00 mg/kg oral
  Respiratory rate: in none of the animals in any dose group was significantly effected
[2]; higher dose groups, oral, three consecutive days
  water consumption: increased water consumption
[2]; lowest dose group 6.25 mg/kg oral
  food intake and body mass gain: Reduced food intake and reduced body mass gain
[2]; lowest dose tested 6,25 mg/kg oral
  appetite suppressive action: has appetite suppressive action
